Laboratory results as given in ChEMBL document CHEMBL3112406, “Virtual screening and biochemical evaluation to identify new inhibitors of mammalian target of rapamycin (mTOR)” (Bioorg Med Chem Lett, 2014).

Biological target: Serine/threonine-protein kinase mTOR (Homo sapiens, UniProt P42345)
Experiment: Inhibition of mTOR (unknown origin) by KINOMEscan assay

c1ccc(-c2c(-c3ccccc3)n(Cc3ccco3)c3ncnc(NCCCn4ccnc4)c23)cc1
IC50: 54.1 µM
